US9617256B2 (priority 2007, dated 2017)
Converted amounts (≈) assume the structure as drawn.

Experiments:
AECO001 (ATCC25922) = test: MIC broth microdilution, AECO001; assay type: cell-based, E. coli; settings: Escherichia coli, ATCC25922, read-out: MIC AECO001
Summary of the method: (§1)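 Incubation: 35° C., ambient air, 18-24 h. Medium: cation-adjusted Mueller-Hinton broth with 2-fold serial dilutions of drug. Inoculum: 3×10^5–7×10^5 CFU/mL final, per CLSI microdilution method.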

[1] = test system: AECO063 (ATCC25922 bearing an acrAB mutation); test: microbe, parasite or virus in culture; assay type: cell-based, E. coli; settings: Escherichia coli, ATCC25922, read-out: MIC AECO063
Summary of the method: as §1

APAE001 (ATCC27853) = test: MIC broth microdilution, APAE001; assay type: cell-based, P. aeruginosa; settings: Pseudomonas aeruginosa, ATCC27853, read-out: MIC APAE001, APAE001 is ATCC27853
Summary of the method: as §1

[2] = test system: APAE006 (strain of P. aeruginosa in which all efflux pumps are inactivated); test: microbe, parasite or virus in culture; assay type: cell-based; settings: Pseudomonas aeruginosa, read-out: MIC APAE006, P. aeruginosa, all efflux pumps inactivated
Summary of the method: (§2)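 Growth inhibition was scored by CLSI broth microdilution using cation-adjusted Mueller-Hinton broth and a final inoculum between 3×10^5 and 7×10^5 CFU/mL, incubated 18-24 hours at 35° C.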

[3] = test system: APAE006 in the presence of 8 micrograms per milliliter of polymyxin B nonapeptide; assay type: cell-based, P. aeruginosa; settings: in the presence of 8 micrograms per milliliter of polymyxin B nonapeptide
Summary of the method: as §2

[4] = test system: AABA1060 (clinical isolate of Acinetobacter baumannii); test: MIC broth microdilution, AABA1060; assay type: cell-based; settings: Acinetobacter baumannii, read-out: MIC AABA1060
Summary of the method: as §1

[5] = test system: ASAU001 (laboratory strain of S. aureus, ATCC29213); test: MIC broth microdilution, ASAU001; assay type: cell-based; settings: Staphylococcus aureus, ATCC29213, read-out: MIC ASAU001
Summary of the method: as §1

AECO001 HSA AGP = test: MIC broth microdilution, AECO001 HSA AGP; assay type: cell-based, E. coli; settings: Escherichia coli
Summary of the method: as §1

SMILES | MIC (AECO001 (ATCC25922)) [µg/mL] | MIC [1] [µg/mL] | MIC (APAE001 (ATCC27853)) [µg/mL] | MIC [2] [µg/mL] | MIC APAE006 + PMBN [3] | MIC [4] [µg/mL] | MIC [5] [µg/mL] | MIC (AECO001 HSA AGP) [µg/mL]
C[C@@H](O)[C@H](NC(=O)c1ccc(C#CC#Cc2ccc(CO)cc2)cc1)C(=O)NO [Example 82-14] | < 2 | < 2 | < 2 | < 2 | A (MIC's of 2.0 μg/mL or less = A) | < 2 | 16 to 64 (≈ 40.8 to 163 µM) | 16 to 64 (≈ 40.8 to 163 µM)
C[C@@H](N)[C@H](NC(=O)c1ccc(C#CC#CC2CC2)cc1)C(=O)NO [Example 91-2] | < 2 | < 2 | < 2 | < 2 | A (MIC's of 2.0 μg/mL or less = A) | < 2 | 2 to 16 (≈ 6.15 to 49.2 µM) | 2 to 16 (≈ 6.15 to 49.2 µM)
CNC[C@H](NC(=O)c1ccc(C#C/C=C/c2ccc(CN3CCOCC3)cc2)cc1)C(=O)NO [Example 99-1] | < 2 | < 2 | 2 to 16 (≈ 4.32 to 34.6 µM) | < 2 | A (MIC's of 2.0 μg/mL or less = A) | 16 to 64 (≈ 34.6 to 138 µM) | 16 to 64 (≈ 34.6 to 138 µM) | 2 to 16 (≈ 4.32 to 34.6 µM)
COC(C)[C@H](NC(=O)c1ccc(/C=C/C#Cc2ccc(CN3CCOCC3)cc2)cc1)C(=O)NO (stereo partly drawn) [Example 110-6] | < 2 | < 2 | 2 to 16 (≈ 4.19 to 33.5 µM) | < 2 | A (MIC's of 2.0 μg/mL or less = A) | 2 to 16 (≈ 4.19 to 33.5 µM) | > 64 | 2 to 16 (≈ 4.19 to 33.5 µM)
C[C@@H](N)[C@H](NC(=O)c1ccc(C#Cc2ccc(CN3CCc4[nH]ncc4C3)cc2)cc1)C(=O)NO [Example 118-2] | < 2 | < 2 | < 2 | < 2 | A (MIC's of 2.0 μg/mL or less = A) | 2 to 16 (≈ 4.23 to 33.9 µM) | 16 to 64 (≈ 33.9 to 135 µM) | 16 to 64 (≈ 33.9 to 135 µM)
C[C@@H](O)[C@H](NC(=O)c1ccc(C#CC#Cc2cncn2C)cc1)C(=O)NO [Example 88-9] | < 2 | < 2 | 2 to 16 (≈ 5.46 to 43.7 µM) | < 2 | A (MIC's of 2.0 μg/mL or less = A) | 16 to 64 (≈ 43.7 to 175 µM) | 16 to 64 (≈ 43.7 to 175 µM) | 2 to 16 (≈ 5.46 to 43.7 µM)
C[C@H](N)[C@H](NC(=O)c1ccc(C#Cc2ccc(CNC3CC3)cc2)cc1)C(=O)NO [Example 133-3] | < 2 | < 2 | < 2 | < 2 | A (MIC's of 2.0 μg/mL or less = A) | 16 to 64 (≈ 39.4 to 157 µM) | > 64 | 2 to 16 (≈ 4.92 to 39.4 µM)
CC(C)(O)[C@H](NC(=O)c1ccc(C#C/C=C/c2ccc(CNC3CC3)cc2)cc1)C(=O)NO [Example 102-5] | < 2 | < 2 | < 2 | < 2 | A (MIC's of 2.0 μg/mL or less = A) | 2 to 16 (≈ 4.47 to 35.8 µM) | > 64 | < 2
O=C(N[C@H](C(=O)NO)c1ccsc1)c1ccc(C#Cc2ccc(CN3CCOCC3)cc2)cc1 [Example 67-8] | < 2 | < 2 | 2 to 16 (≈ 4.21 to 33.6 µM) | < 2 | A (MIC's of 2.0 μg/mL or less = A) | 2 to 16 (≈ 4.21 to 33.6 µM) | > 64 | 2 to 16 (≈ 4.21 to 33.6 µM)
CCOCc1ccc(C#C/C=C/c2ccc(C(=O)N[C@H](C(=O)NO)[C@@H](C)N)cc2)cc1 [Example 113-10] | < 2 | < 2 | 2 to 16 (≈ 4.74 to 38 µM) | < 2 | A (MIC's of 2.0 μg/mL or less = A) | 2 to 16 (≈ 4.74 to 38 µM) | 16 to 64 (≈ 38 to 152 µM) | 2 to 16 (≈ 4.74 to 38 µM)
CO[C@H](C)[C@H](NC(=O)c1ccc(/C=C/C#Cc2ccc(CO)cc2)cc1)C(=O)NO [Example 112-4] | < 2 | < 2 | < 2 | < 2 | A (MIC's of 2.0 μg/mL or less = A) | < 2 | 16 to 64 (≈ 39.2 to 157 µM) | 2 to 16 (≈ 4.9 to 39.2 µM)
C[C@@H](N)[C@H](NC(=O)c1ccc(C#CC#Cc2ccc(CNC3CC3)cc2)cc1)C(=O)NO [Example 86-3] | < 2 | < 2 | < 2 | < 2 | A (MIC's of 2.0 μg/mL or less = A) | 2 to 16 (≈ 4.65 to 37.2 µM) | 16 to 64 (≈ 37.2 to 149 µM) | < 2
